Data from US8741922B2, “Solid forms of N-(4-(7-azabicyclo[2.2,1]heptan-7-yl)-2-trifluoromethyl)phenyl)-4-oxo-5-(trifluoromethyl)-1,4-dihydroquinoline-3-carboxamide” (Vertex Pharmaceuticals Incorporated, priority 2009, dated 2014).

Molecular target: T1, ΔF508-CFTR (Homo sapiens, UniProt P13569, DEL508-508)
T1 construct: expressed in transfected cells
Test: Membrane potential optical assay for ΔF508-CFTR potentiation (FLIPR III, voltage sensing dyes)
Type: cell-based
Details: assay not explicitly tied to the value, ΔF508-CFTR NIH 3T3 cells
Excerpt: Assays for Detecting and Measuring ΔF508-CFTR Potentiation Properties of Compounds
Membrane Potential Optical Methods for Assaying ΔF508-CFTR Modulation Properties of Compounds
The assay utilizes fluorescent voltage sensing dyes to measure changes in membrane potential using a fluorescent plate reader (e.g., FLIPR III, Molecular Devices, Inc.) as a readout for increase in functional ΔF508-CFTR in NIH 3T3 cells. The driving force for the response is the creation of a chloride ion gradient in conjunction with channel activation by a single liquid addition step after the cells have previously been treated with compounds and subsequently loaded with a voltage sensing dye.
To identify potentiators of ΔF508-CFTR, a double-addition HTS assay format was developed. This HTS assay utilizes fluorescent voltage sensing dyes to measure changes in membrane potential on the FLIPR III as a measurement for increase in gating (conductance) of ΔF508 CFTR in temperature-corrected ΔF508 CFTR NIH 3T3 cells. The driving force for the response is a Cl^− ion gradient in conjunction with channel activation with forskolin in a single liquid addition step using a fluorescent plate reader such as FLIPR III after the cells have previously been treated with potentiator compounds (or DMSO vehicle control) and subsequently loaded with a redistribution dye. […]

T1 sequence (P13569 with tags, fused parts or gaps DEL508-508): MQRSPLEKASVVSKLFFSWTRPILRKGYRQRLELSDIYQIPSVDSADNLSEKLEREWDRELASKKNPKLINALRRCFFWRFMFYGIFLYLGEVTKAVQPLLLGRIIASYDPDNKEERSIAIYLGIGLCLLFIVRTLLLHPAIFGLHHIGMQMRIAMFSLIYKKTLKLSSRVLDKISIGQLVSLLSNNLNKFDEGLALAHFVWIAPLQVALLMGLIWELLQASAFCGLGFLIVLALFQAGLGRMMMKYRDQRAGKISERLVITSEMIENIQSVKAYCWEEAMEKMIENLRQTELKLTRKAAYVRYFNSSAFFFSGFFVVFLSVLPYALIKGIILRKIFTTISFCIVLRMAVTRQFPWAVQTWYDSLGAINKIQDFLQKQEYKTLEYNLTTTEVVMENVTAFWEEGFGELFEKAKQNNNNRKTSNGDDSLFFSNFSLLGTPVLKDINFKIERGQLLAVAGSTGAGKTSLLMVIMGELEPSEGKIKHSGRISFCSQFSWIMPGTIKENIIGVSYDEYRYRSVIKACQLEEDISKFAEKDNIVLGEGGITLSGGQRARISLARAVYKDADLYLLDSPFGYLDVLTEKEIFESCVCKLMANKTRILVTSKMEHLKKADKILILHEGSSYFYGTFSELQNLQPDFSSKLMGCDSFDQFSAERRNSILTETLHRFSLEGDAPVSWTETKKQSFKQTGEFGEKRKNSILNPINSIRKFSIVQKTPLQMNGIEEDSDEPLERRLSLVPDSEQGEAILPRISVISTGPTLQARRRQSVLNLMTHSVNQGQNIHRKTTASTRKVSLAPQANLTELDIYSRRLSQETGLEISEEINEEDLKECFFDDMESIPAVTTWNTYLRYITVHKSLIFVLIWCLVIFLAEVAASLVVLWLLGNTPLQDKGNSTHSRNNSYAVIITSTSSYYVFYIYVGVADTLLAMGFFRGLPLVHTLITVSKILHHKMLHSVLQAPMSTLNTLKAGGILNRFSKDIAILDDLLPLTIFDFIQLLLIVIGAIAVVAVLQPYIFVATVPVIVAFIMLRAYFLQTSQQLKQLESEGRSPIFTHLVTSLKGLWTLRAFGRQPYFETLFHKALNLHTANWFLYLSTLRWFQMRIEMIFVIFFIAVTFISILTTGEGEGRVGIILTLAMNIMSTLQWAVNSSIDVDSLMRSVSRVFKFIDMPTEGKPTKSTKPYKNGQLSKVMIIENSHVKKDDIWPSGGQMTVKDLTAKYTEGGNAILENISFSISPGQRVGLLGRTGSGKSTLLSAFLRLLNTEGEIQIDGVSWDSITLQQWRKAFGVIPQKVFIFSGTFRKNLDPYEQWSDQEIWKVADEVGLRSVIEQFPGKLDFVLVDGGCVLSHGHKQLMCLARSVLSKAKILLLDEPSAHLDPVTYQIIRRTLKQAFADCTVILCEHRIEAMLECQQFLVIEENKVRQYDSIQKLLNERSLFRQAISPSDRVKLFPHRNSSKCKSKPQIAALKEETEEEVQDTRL

**Q.** Which EC50 does the source give for `O=C(Nc1ccc(N2C3CCC2CC3)cc1C(F)(F)F)c1c[nH]c2cccc(C(F)(F)F)c2c1=O` [Compound I, Form A, N-(4-(7-azabicyclo[2.2.1]heptan-7-yl)-2-(trifluoromethyl)phenyl)-4-oxo-5-(trifluoromethyl)-1,4-dihydroquinoline-3-carboxamide] here?
**A.** Its EC50 is < 2000 nM.
